Tests used:
PH-domain of AKT = biological target: T1, PH-domain of AKT (Homo sapiens, UniProt P31749); test: SPR binding to expressed PH-domain of AKT
T1 construct: made in house
Procedure: (§1) In embodiments, the binding of identified compounds to the crystal structures of other PH-domain signaling proteins, AKT, PDPK1, Btk, and Tiam1 can be predicted. In such embodiments, the Kds exceed about 100 μM. In other embodiments, SPR can measure the binding of identified compounds to the expressed PH-domains of AKT, PDPK1 and Tiam1. […] Thus, the identified compounds appear have, at least, about 50 to about 100 fold selectivity for CNKSR1 compared to the other PH-domains studied.
(§2) A commercially available docking package, GOLD (GOLD [3.2], CCDC: Cambridge, UK, 2007) was used to evaluate the docking of compounds 1-7 into the binding pocket, see e.g. Table 5. Other docking was performed using modeling algorithms with state-of-the-art commercial drug discovery software (Schrodinger suite). GLIDE was chosen as the docking algorithm used to select and optimize compounds, providing a GlideScore as a rough estimate of binding affinity that was used to rank and select the best compounds. Additionally, ligand-based approaches provided an alternative to structure based drug discovery. Ligand-based virtual screening methodologies can take into account shape and electrostatics (like ROCS) and the pharmacophoric features (acceptor, donor, hydrophobic, aromatic, etc.) of its functional groups. […]

PH-domain of PDPK1 = biological target: T2, PH-domain of PDPK1 (Homo sapiens, UniProt O15530); test: SPR binding to expressed PH-domain of PDPK1
T2 construct: made in house
T2 sequence (O15530 459-550 limits assumed): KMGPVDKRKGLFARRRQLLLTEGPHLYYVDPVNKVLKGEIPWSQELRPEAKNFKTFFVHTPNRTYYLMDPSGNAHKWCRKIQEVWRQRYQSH
Procedure: as §1, §2

[1] = test system: H226 (KRAS wildtype cell line); test: Proliferation Assay H226; type: cell-based; details: Homo sapiens, NCI-H226, n = 1
Procedure, shortened: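 Cells plated 2000 per well, allowed 24 h to attach, then exposed 72 h to agents (0-100 μM for isogenic lines; 0.01 to 50 μM for the RPMI 1640/10% FBS-cultured 30-line NSCLC panel). MTS read at 490 nm after 2 h, normalized to no-cell and no-drug controls; IC50 from curve fitting.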

PH-domain of Tiam1 = test: SPR binding to expressed PH-domain of Tiam1
Procedure: as §1, §2

rHuman carboxyesterase 2 = biological target: T3, rHuman carboxyesterase 2 (Homo sapiens, UniProt O00748); test: Stability with carboxyesterase 2; type: in vitro ADME; details: rHuman carboxyesterase 2 24 U/ml, pH 7.4, 37° C.
T3 sequence (O00748 27-559): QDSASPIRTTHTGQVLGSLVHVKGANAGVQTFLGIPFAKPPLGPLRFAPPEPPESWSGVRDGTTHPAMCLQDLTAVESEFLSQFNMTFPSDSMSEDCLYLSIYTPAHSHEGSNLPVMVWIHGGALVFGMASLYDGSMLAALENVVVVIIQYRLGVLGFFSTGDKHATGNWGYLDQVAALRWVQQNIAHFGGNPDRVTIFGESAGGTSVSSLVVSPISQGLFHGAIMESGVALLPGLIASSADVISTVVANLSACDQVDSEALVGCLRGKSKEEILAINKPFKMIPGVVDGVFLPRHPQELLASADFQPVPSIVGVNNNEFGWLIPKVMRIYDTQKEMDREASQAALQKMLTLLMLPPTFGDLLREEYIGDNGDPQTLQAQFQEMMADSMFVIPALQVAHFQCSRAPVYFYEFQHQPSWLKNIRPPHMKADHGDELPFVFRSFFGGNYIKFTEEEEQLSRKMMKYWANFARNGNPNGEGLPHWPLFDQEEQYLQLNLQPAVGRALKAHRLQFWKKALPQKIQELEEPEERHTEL

[2] = Stability in biological media: mouse plasma; type: in vitro ADME; details: 50 μg/ml, 37° C.
[3] = Mouse pharmacokinetics (iv); type: in vivo
[4] = test system: mut-KRAS H2122 NSCLC tumor xenograft; test: Antitumor activity, H2122 xenograft; type: in vivo; details: scid mice
Procedure: In embodiments, identified compounds may be nontoxic at about […] for about 20 days with no weight loss and no observable toxic effects for the animal, and may have antitumor activity (FIG. 4 A).

rHuman carboxyesterase 1 = biological target: T4, rHuman carboxyesterase 1 (Homo sapiens, UniProt P23141); test: Stability with carboxyesterase 1; type: in vitro ADME; details: rHuman carboxyesterase 1 24 U/ml, pH 7.4, 37° C.
T4 sequence (P23141 18-567): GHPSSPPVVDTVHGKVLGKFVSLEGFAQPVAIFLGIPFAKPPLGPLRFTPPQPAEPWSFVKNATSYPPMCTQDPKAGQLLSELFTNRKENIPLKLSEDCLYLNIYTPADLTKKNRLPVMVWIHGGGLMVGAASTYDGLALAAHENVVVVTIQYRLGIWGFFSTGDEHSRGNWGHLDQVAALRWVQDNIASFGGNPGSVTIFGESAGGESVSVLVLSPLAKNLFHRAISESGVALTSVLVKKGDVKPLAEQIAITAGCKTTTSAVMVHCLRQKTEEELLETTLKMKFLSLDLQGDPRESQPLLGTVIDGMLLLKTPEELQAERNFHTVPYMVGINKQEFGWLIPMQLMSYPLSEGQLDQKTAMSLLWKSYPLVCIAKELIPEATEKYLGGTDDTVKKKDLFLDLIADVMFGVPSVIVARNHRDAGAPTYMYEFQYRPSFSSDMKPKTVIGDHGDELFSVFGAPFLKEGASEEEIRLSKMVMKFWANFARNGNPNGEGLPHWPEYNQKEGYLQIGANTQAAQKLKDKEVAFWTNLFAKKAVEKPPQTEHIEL

T1 sequence (P31749 5-108 limits assumed): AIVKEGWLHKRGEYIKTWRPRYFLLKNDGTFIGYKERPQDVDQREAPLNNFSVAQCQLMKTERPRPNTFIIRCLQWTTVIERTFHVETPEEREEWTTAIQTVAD

SPR binding to PH-domain of AKT (PH-domain of AKT): No measurable binding
SPR binding to PH-domain of PDPK1 (PH-domain of PDPK1): No measurable binding
IC50 [1]: > 100 µM
SPR binding to PH-domain of Tiam1 (PH-domain of Tiam1): No measurable binding
Half life (rHuman carboxyesterase 2): 99 min
Half life [2]: 6.3 min
t1/2β [3]: 3 UN min
Half life (rHuman carboxyesterase 1): 19 min
Structure (SMILES): CCOC(=O)Cc1nn(Cc2nc(-c3ccc(C)cc3)cs2)c(=O)c2ccccc12 [Compound 7]
tumor growth rate inhibition [4]: about 45%
tumor growth rate ([4]; vehicle about 55): about 30 mm^3/day

— patent US9340532B2, “Methods and compositions for inhibiting CNKSR1” (PHUSIS THERAPEUTICS, INC., priority 2012, dated 2016)
